Where a SMILES comes first, the peptide text is derived from it. [ ]: non-standard residue; d: D form. Hyp = O=C(O)[C@@H]1C[C@@H](O)CN1; dHyp = O=C(O)[C@H]1C[C@H](O)CN1
Columns and labels:
[1] = system: phosphoinositol turnover in neonatal rat cardiomyocytes; assay: Phosphoinositol turnover in primary cardiomyocyte cultures; type: cell-based
Procedure: Neonatal Wistar rats (1-2 days old) are used. Hank's calcium- and magnesium-free balanced salt solution, buffered with 10 mM HEPES is used for washing during cell separation procedures. The hearts are excised, the ventricles isolated and the tissue cut into small pieces. The myocardial cells are isolated by stepwise enzymatic degradation with collagenase 0.05%, as described by ^[35]. After repeated rounds of centrifugation and washing, the precipitated cells are resuspended in culture medium M199 with Earle's salt, 10% NCS, penicillin (75 U/mL), and streptomycin (75 U/mL) and pre-plated in a Petri dish for 90 minutes. The non-adherent cells are collected in the culture medium and plated in multidishes at 2.5*10^5 cells/well. The cultures are kept in a water-saturated CO2-incubator at 37° C. The cardiomyocyte cultures are used for analyses after 6-7 days.
Cardiomyocyte cultures are incubated for 48 hours in culture medium containing 4 μCi/mL myo-[2-^3H]inositol to label the inositol phospholipids. On the day of analysis the medium is replaced by a buffer solution containing lithium and incubated at 37° C., as described by Meier et al.^[36]. After at least five minutes this buffer is replaced by the same volume of buffer containing test compound and incubated for exactly 20 minutes. The reaction is stopped by rapid replacement of the buffer by ice cold 4% v/v perchloric acid (PCA) and incubation for at least 20 minutes at 0° C. The PCA-extract is neutralised and the [^3H]inositol phosphates are separated by anion-exchange chromatography using Amprep™ columns containing 100 mg SAX Quaternary amine. The [^3H]inositol mono-phosphates are eluted and radioactivity in the fraction measured by liquid scintillation counting.
Before adding test substances to the cultures, the cells are depleted of glucose and oxygen by incubating them in a N2-atmosphere in glucose-free lithium-buffer for 10 minutes at 37° C. Control cells are incubated likewise only at normal atmospheric conditions and in a buffer containing glucose.

[2] = system: connexin 43 in keratinocytes; details: keratinocytes of middel aged and elderly people; cited from earlier work
[3] = system: calcium-induced arrythmias; assay: Calcium-induced arrhythmia model in mice (CaCl2-induced 2nd degree AV-block); type: in vivo; set-up: CaCl2 mice Score: scale not given here; details: for CaCl2 mice In vivo, % / CaCl2 mice Score: calcium chloride induced arrythmia model; for In vivo activity: maximal effect, increase in time until 2nd degree AV-block relative to vehicle treated mice, i.v.
Procedure: The antiarrhythmic effects of compounds of this invention were tested in an in vivo model of calcium-induced arrythmias according to the model of Lynch et al.^[37]. […]. Commercial solutions of hypnorm and midazolam were diluted 1:1 in distilled water and one part diluted Hypnorm® is mixed with one part diluted midazolam.
The anaesthesia was induced by s.c. administration in a dose of 0.05-0.075 μl/10 gram mouse. An i.v. cannula was inserted into the tail vein. The lead II ECG signal was recorded continuously by positioning of a stainless steel ECG electrodes on the right forelimb and on the left hind limb. The ground electrode was placed on the right hind limb. The signal was amplified (×5.000-10.000) and filtered (0.1-150 Hz) via a Hugo Sachs Electronic model 689 ECG module. The analogue signal was digitised via a 12 bit data acquisition board (Data Translation model DT321) and sampled at 1000 Hz using the Notocord HEM 3.1 software for Windows NT. After a 10-min equilibration period, the test sample of drug was injected into the tail vein. Mice pre-treated with vehicle were tested as a measure of the control level in untreated animals. The injection volume was 100 μl in all experiments. Infusion of CaCl2 (30 mg/ml, 0.1 ml/min≈100 mg/kg/min (calciumchlorid-2-hydrat, Riedel-de Haën, Germany)) was started 3 min after i.v. administration of drug or vehicle.
The time lag to onset of 2nd degree AV-block was determined as the time from the start of CaCl2 infusion until the first arrhythmic event occured. An event of 2nd degree AV-block was defined as intermittent failure of the AV conduction characterised by a P-wave without the concomitant QRS complex.
Responses were expressed relative to the time until 2nd degree AV-block occurred in vehicle treated mice.

[4] = system: membranes from rabbit heart; details: cited from earlier work
[5] = system: regional ischemia in the rabbit; details: cited from earlier work
[6] = In vitro plasma and serum stability, human; type: in vitro ADME; details: for T½, PLASMA, HEPARIN HUMAN: 37° C., 0.1 mg/ml
Procedure: (§1) The stability of peptides is analysed in serum and plasma. The peptides are incubated at 37° C. in plasma or serum and samples taken at approx. 9 regular intervals between t=0 and t=156 min are analysed by HPLC.
(§2) This is done by subsequent injections of the drug, plasma, and a co-injection with the drug and the plasma, followed by optimisation of the LC method parameters until a satisfactory separation is obtained. Three parallel experiments are performed for each plasma type. 100 ml of peptide is mixed with 900 ml plasma at t=0 and incubated at 37° C. (drug-plasma mixture conc. 0.1 mg/ml). Samples of 100 ml of the drug-plasma mixture are removed at appropriate intervals and the degradation stopped by precipitation of the sample with 10 ml MeCN:TFA 50:50 v/v. A control plasma sample without the drug treated in the same manner is also taken. The plasma samples are centrifuged for 15 min. at 12,000 rpm (Eppendorf centrifuge) at ambient temperature. The resulting supernatant solution is transferred to 300 ml HP autosamler vials and analyzed by HPLC. The samples are analyzed in the following order: blank, the peptide at 0.1 mg/mL, the plasma without the peptide, the three parallel samples for t=0, the three parallel samples for t=5 min. the three parallel samples for t=10 min. etc. And finally the three parallel samples for t=0 are repeated to make sure that there have been no degradation or other failure during the analyses. The sample concentrations (peak height in mAU) are plotted vs. time and fitted to a function describing a mono exponential decay (Excel).

human osteoblastic cells = assay: DDT-induced uncoupling in human osteoblast cells, Lucifer Yellow microinjection; type: cell-based; details: 13 μM, 60 minutes; control 14.5 cells
Procedure: Human osteoblast cells: Cells were isolated from human bone marrow obtained by puncture of the posterior iliac spine of healthy volunteers (aged 20-36): 10-15 ml marrow material was collected in 15 ml PBS+Ca, Mg (Life Technologies, Cat.No. 14040) with 100 U/ml Heparin (Sigma, Cat.No. H-3149). The mononuclear fraction of the marrow was isolated on a Lymphoprep gradient (Nycomed Pharma, Cat.No. 1001967), by centrifugation at 2200 rpm for 30 min. After harvesting, the mononuclear fraction was washed once with culture medium and centrifuged at 1800 rpm for 10 min. Subsequently cells were counted and plated in culture medium at 8×10^6 cells/100 mm dish. hOB medium (all reagents obtained from Life Technologies): MEM w/o Phenol Red w/Glutamax (Cat.No. 041-93013) supplemented with 10% heat inactivated fetal calf serum (Cat.No. 10106) and 0.1% Penicillin/Streptomycin (Cat.No. 15140). Medium was changed the following day and the cells were cultured at 37° C. in 5%CO2 with medium change every 7 days. After 3-4 weeks of culture the cells had reached 70% confluence. The medium was then supplemented with 100 nM Dexamethasone (Sigma, Cat.No. D-4902) for 7 days. Cells were then plated for video imaging experiments: a 25 mm #1 glass coverslip was placed in a 35 mm dish (or each well of a 6-well multidish), cells were plated at 2.5×10^5 cells/coverslip and cultured for 2-3 days before use. […]

[7] = system: WB-F344 rat liver epithelial cells; details: cited from earlier work
[8] = In vitro plasma and serum stability, rabbit; type: in vitro ADME; details: 37° C., 0.1 mg/ml
Procedure: as §1
as §2, with “And finally the three parallel samples for t=0 are repeated to make sure that there have been no degradation or other failure during the analyses. The sample concentrations (peak height in mAU) are plotted vs. time and fitted to a function describing a mono exponential decay (Excel).” left out

[9] = system: cerulein-induced acute pancreatitis; details: 100 mg/kg orally; pancreatitis group 19%; cited from earlier work
GJIC = details: 10(−10) to 10(−6) M; cited from earlier work

NC[C@H](O)c1ccc(O)c(O)c1 [Noradrenaline]
Emax of phosphoinositol turnover ([1]; atmosphere of N2 and depleted of glucose): 2248±702 cpm
Emax of phosphoinositol turnover ([1]; normal atmospheric and nutritional conditions): 3852±266 cpm

COc1cc2c(cc1O)C[C@H]1c3c(cc(O)c(OC)c3-2)CCN1C [boldine]
optimal concentration for increase of the content of connexin 43 [2]: 50 nM

H-GAG[Hyp]PY-NH2 [AAP10]
EC50 relative to the EC50 value for Compound 2 ([1]; metabolic stress induced by anoxia and glucose deprivation): 10 fold
EC50 relative to the EC50 value for Compound 2 ([1]; normoxia): 200 fold
CaCl2 mice In vivo, % [3]: 76 +/− 21%
CaCl2 mice Score [3]: 3
In vivo activity [3]: +++ (+++ refers to >60% increase in time until arrhythmia)
value given for AAP10 by Dhein et al. [4]: 0.2 nM
concentration of maximal effect on dispersion of the epicardial activation-recovery interval [5]: 10^−8 mol/l

H-PYNGAG[Hyp]-NH2 [Compound 27]
stability in plasma and serum compared with AAP10 [6]: considerably more stable

Clc1ccc(C(c2ccc(Cl)cc2)C(Cl)(Cl)Cl)cc1 [DDT, 1,1-bis(p-chlorophenyl)-2,2,2-trichlorethane, reference compound]
cellular coupling, median number of cells with dye (human osteoblastic cells): 7 cells

Oc1ccc(C=Cc2cc(O)cc(O)c2)cc1 [Resveratrol, resveratrol]
time until calcium-induced block relative to animals treated with vehicle ([3]; iv, 0.1 umol/kg): 136±9%
prevention of down-regulation of GJIC by DDT, factor ([7]; 17-50 microM): 1.8
prevention of down-regulation of GJIC by TPA, factor ([7]; 17-50 microM): 2.7
increase of GJIC, factor compared with solvent vehicle controls ([7]; 17 to 50 microM, 6 h): 1.3

cyclo(GAG[Hyp]PYN) [Compound 36]
CaCl2 mice In vivo, % [3]: 57 +/− 8%
CaCl2 mice Score [3]: 2
In vivo activity [3]: +++ (+++ refers to >60% increase in time until arrhythmia)
T½, PLASMA, HEPARIN RABBIT [8]: 30 hrs ± 8%
Human plasma half life [6]: 13 h
T½, PLASMA, HEPARIN HUMAN [6]: 9 hrs ± 1%

Nc1nc(N)nc(-c2cc(Cl)ccc2Cl)n1 [irsogladine, 6-(2,5-dichlorophenyl)-2,4-diamino-1,3,5-triazine]
number of Cx32 grains, % of the normal control value [9]: 70%
effect on GJIC, compound alone (GJIC): did not affect GJIC

cyclo(GAG[Hyp]PYQ) [Compound 35]
CaCl2 mice In vivo, % [3]: 48 +/− 14%
CaCl2 mice Score [3]: 2
In vivo activity [3]: ++ (++ refers to 30-50% increase in time until arrhythmia)
T½, PLASMA, HEPARIN RABBIT [8]: 14 hrs ± 2%
Human plasma half life [6]: 15 h
T½, PLASMA, HEPARIN HUMAN [6]: 15 hrs ± 1%

C[C@H](NC(=O)CN)C(=O)NCC(=O)N1C[C@H](O)C[C@H]1C(=O)N1CCC[C@H]1C(=O)N[C@@H](Cc1ccc(O)cc1)C(=O)N[C@@H](CCCCN)C(=O)N[C@@H](CCCCN)C(=O)N[C@@H](CCCCN)C(=O)N[C@@H](CCCCN)C(=O)N[C@@H](CCCCN)C(=O)N[C@@H](CCCCN)C(N)=O [Compound 50] (H-GAG[Hyp]PYKKKKKK-NH2)
CaCl2 mice In vivo, % [3]: 33 +/− 17%
CaCl2 mice Score [3]: 2

C[C@H](NC(=O)CN)C(=O)NCC(=O)N1C[C@@H](O)C[C@@H]1C(=O)N1CCC[C@@H]1C(=O)N[C@@H](Cc1ccc(O)cc1)C(N)=O [Compound 10, H-Gly-Ala-Gly-D-Hyp-D-Pro-Tyr-NH2] (H-GAG[dHyp][dP]Y-NH2)
CaCl2 mice Score [3]: 2
In vivo activity [3]: +++ (+++ refers to >60% increase in time until arrhythmia)

— patent publication US7585839B2, “Medical uses of intercellular communication facilitating compounds” (Zealand Pharma A/S, priority 2001, dated 2009)
